In the NIST ThermoML archive (doi:10.1021/je500065k):
± gives the expanded uncertainty stated by the source.

Conditions: 101.33 kPa, Liquid; for electrical conductivity: the complex impedance method; for mass density: Vibrating tube method

CC[N+](C)(CC)CCOC.F[B-](F)(F)F
Conditions | electrical conductivity [S/m] | mass density [kg/m3] | viscosity [mPa·s]
263.15 K | 0.0055 ± 0.0001 | – | –
273.15 K | 0.0156 ± 0.0002 | – | –
283.15 K | 0.0381 ± 0.0004 | 1188.2 ± 1.5 | 1350 ± 240
288.15 K | – | 1184.8 ± 1.5 | 890 ± 140
293.15 K | 0.0821 ± 0.0008 | 1181.3 ± 1.5 | 604 ± 81
298.15 K | – | 1177.8 ± 1.5 | 422 ± 49
303.15 K | 0.153 ± 0.002 | 1174.4 ± 1.5 | 303 ± 30
308.15 K | – | 1171 ± 1.5 | 222 ± 18
313.15 K | 0.262 ± 0.003 | 1167.7 ± 1.5 | 167 ± 11
318.15 K | – | 1164.4 ± 1.5 | 128 ± 7
323.15 K | 0.414 ± 0.004 | 1161.1 ± 1.5 | 99.7 ± 3.9
328.15 K | – | 1157.9 ± 1.5 | 79.1 ± 2.1
333.15 K | 0.612 ± 0.006 | 1154.7 ± 1.5 | 63.7 ± 1.1
338.15 K | – | 1151.4 ± 1.5 | 52 ± 0.6
343.15 K | 0.857 ± 0.009 | 1148.2 ± 1.5 | 43 ± 0.7
348.15 K | – | 1145 ± 1.4 | 36 ± 0.6
353.15 K | 1.16 ± 0.01 | 1141.8 ± 1.4 | 30.5 ± 0.5

CC[N+](C)(CC)CCOC.O=S(=O)([N-]S(=O)(=O)C(F)(F)F)C(F)(F)F
Conditions | electrical conductivity [S/m] | mass density [kg/m3] | viscosity [mPa·s]
234.15 K | 0.00083 ± 1e-05 | – | –
243.15 K | 0.0033 ± 0.0001 | – | –
253.15 K | 0.0113 ± 0.0001 | – | –
263.15 K | 0.0301 ± 0.0003 | – | –
273.15 K | 0.0662 ± 0.0007 | – | –
283.15 K | 0.127 ± 0.001 | 1420.6 ± 1.9 | 166 ± 11
288.15 K | – | 1416.1 ± 1.9 | 123 ± 6
293.15 K | 0.216 ± 0.002 | 1411.5 ± 1.9 | 92.7 ± 3.3
298.15 K | – | 1406.9 ± 1.9 | 71.8 ± 1.6
303.15 K | 0.336 ± 0.003 | 1402.3 ± 1.9 | 56.8 ± 0.8
308.15 K | – | 1397.7 ± 1.9 | 45.7 ± 0.8
313.15 K | 0.488 ± 0.005 | 1393.2 ± 1.9 | 37.4 ± 0.6
318.15 K | – | 1388.6 ± 1.9 | 31 ± 0.5
323.15 K | 0.67 ± 0.007 | 1384 ± 1.9 | 26.1 ± 0.4
328.15 K | – | 1379.5 ± 1.9 | 22.2 ± 0.4
333.15 K | 0.869 ± 0.009 | 1375 ± 1.9 | 19.1 ± 0.3
338.15 K | – | 1370.5 ± 1.8 | 16.6 ± 0.3
343.15 K | 1.09 ± 0.01 | 1366.1 ± 1.8 | 14.5 ± 0.3
348.15 K | – | 1361.7 ± 1.8 | 12.8 ± 0.2
353.15 K | 1.33 ± 0.01 | 1357.3 ± 1.8 | 11.4 ± 0.2
